For data set [1], the system named is non-differentiated Caco-2 cells. How it is done:
Caco-2 cells were seeded on coverslips treated with polylysine at a concentration of approximately 2.5 - 5x10^5 cells/ml and grown to confluence. Cells were washed once with PBS without Ca^2+, Mg^2+. 1-2 ml of PBS w/o Ca^2+, Mg^2+ containing antisense oligonucleotides +/- enhancers was added and cells were incubated for 30 min at 37°C. Variations to this protocol by pre-incubating cells with enhancers (40min), washing with PBS w/o Ca^2+, Mg^2+ and then incubating with antisense oligonucleotides for 30min were also analysed.
Two different FITC labelled antisense oligonucleotides were used: FITC-labelled ELNG05 (5'-[…]-3'; complementary to a sequence in the human BCR-Abl mRNA) and FITC-labelled S-PTH-05 (5'-[…]-3', complementary to sequence 153-170 of the human HPT1 receptor mRNA). […] The uptake of antisense oligonucleotides was also analysed in the absence of enhancers for variable periods of time (30min - 60min). Following incubation, cells were washed twice with PBS w/o Ca^2+, Mg^2+ and stained with 1µg/ml TexasRed-DHPE (dihexadecanoylglycerophosphoethanolamine, Molecular Probe T-1395) for 15min at 37°C, washed extensively and fixed with paraformaldeyde pH shift (Barcallo, 1995) and mounted for analysis by confocal laser scanning microscopy (CLSM).
After two washes with PBS w/o Ca^2+ and Mg^2+, the cells were incubated with 2ml of FITC-antisense oligonucleotide (ELNG05) at a concentration of 10µM in PBS w/o Ca^2+ and Mg^2+ and incubated at 37°C for 30min.
Caco-2 cells were incubated with 1ml of antisense +/- enhancers in PBS w/o Ca^2+ and Mg^2+ and incubated for 30min at 37°C. Two different fluorescently labelled antisense oligonucleotides were used in these experiments at a concentration of 10µM: ELNG05 (antisense to BCR-Ab1) and S-PTH-05 (antisense to HPT1 receptor). […] The uptake of antisense was also analysed in the absence of enhancers for 30min and 60min as control.

Data set [2] relates to Caco-2 cells. As to conditions: cationic lipid (lipofectamine): plasmid DNA complex alone set at 100%; β-galactosidase 24 hours post transfection; enhancer concentration not given in the sentence (C8 30 or 5mM, C10 5 or 1mM tested).

The text below walks through data of EP1173217B1, “ENHANCED DELIVERY OF NUCLEIC ACID-BASED DRUGS” (Merrion Research I Limited, priority 1999, dated 2000).

Like-named read-outs stand apart in the source and are kept apart here.

`CCCCCCCCCC(=O)[O-].[Na+]` [C10, sodium caprate]: in data set [1] (Experiment a, C10 at 10-13mM pre-incubated 40min, then 10µM FITC-ELNG05 30min), the “cell permeation / intracellular staining with TexasRed-DHPE and FITC-oligonucleotide (CLSM)” value was “permeated completely the cells”. In addition, in data set [1] (Experiment b, C10 2.6 mM together with 10µM antisense, 30min), the “uptake of antisense (CLSM)” value was “did not increase the uptake of antisense”. In addition, the “effect on Caco-2 cell adherence” value in data set [1] (Experiment b, C10 13mM, 30min) is reported as “loss of adherence of Caco-2 cells”. The “staining of cells (CLSM)” value is “only punctate staining, similar to the control” in data set [1] (Experiment c, C10 8mM with 10µM antisense, 30min) and “completely stained” in data set [1] (Experiment c, C10 10mM with 10µM antisense, 30min). Also, the effect on cells entry in data set [1] (Experiment c, C10 between 13mM and 8mM, 30min) was “destruction of cells”. Further, in data set [2], the efficiency of transfection came out at 245%.
